The record followed here is patent US6384304B1, “Conditional sterility in wheat” (Plant Genetic Systems N.V., priority 1999, dated 2002).

The data set relates to Triticum aestivum plants. The settings on record: 0.1% active ingredient, microdroplets on leaf blades, stage 32, outdoor; radioactivity measurements and autoradiography at different time points.

Procedure: Plant treatment: The application solution of the formulated test compound was applied in the form of microdroplets by syringe to the blades (adaxial surface) of the fuilly developed leaves. A volume of 20 μl each was applied to the 3rd or 4th leaf of the main shoot and of two tillers per plant (=a total of 60 μl application solution per plant.). Plants were kept under outdoor conditions and uptake and translocation of the test substance was analyzed at different stages.
Sampling of Leaf Tissue was Carried Out at the Following Time Points:
1) 1 week after treatment
2) 3 weeks after treatment
Processing of Collected Samples for quantitative Determinations:
For the sampling done at time points 1, 2 and 3, the treated leaf blades were cut off and the non-absorbed test compound was washed from the treated leaf blades by 2 consecutive short washes with water. Subsequently plants were dissected further, resulting in the following parts: […]
Radioactivity was quantified in the different plant parts and in the washing solutions and was calculated as equivalents of the labeled compounds. […]
For the sampling time point 4, radioactivity is determined in the grains only and is calculated as equivalents of the labeled test compound. […]
In addition to the quantitative radioactivity measurements the distribution of radioactivity is determined by autoradiography in plants of the sampling time points 1 and 2.

For `CC(=O)N[C@@H](CCP(C)(=O)[O-])C(=O)[O-].[Na+].[Na+]` [N-acetyl PPT, dinatrium L-2-acetamido-4-methylphosphinato-butyrate-[3^14C, 4^14C]], the “foliar uptake in wheat tissue” value is recorded as “good”; the “translocation of the test substance in the plant” value was “translocation through the phloem to the ears both in the main shoot and the tillers”.
